Results published in patent US8076487B2, “Pyridone derivative and herbicide” (Kumiai Chemical Industry Co., Ltd., priority 2006, dated 2011).

Assays:
Type in all cases: in vivo
[1] = tested on: slender amaranth (Amaranthus viridis L.); experiment: Test Example 3: herbicidal effect by application to upland field (foliage treatment); conditions: foliage treatment, plants grown two weeks, 1,000 g active ingredient per hectare, 14th day after application
In short: (§1)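 Plants were sown in field soil and raised in a greenhouse for two weeks before foliar spraying. A water-diluted wettable powder was applied at 1,000 g active ingredient per hectare in 1,000 liters per hectare. Herbicidal effect was scored on a standard scale 14 days later.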

[2] = tested on: velvetleaf (Abutilon theophrasti medicus); experiment: as above; conditions: foliage treatment, plants grown two weeks, 1,000 g active ingredient per hectare, 14th day after application
In short: as §1

[3] = tested on: barnyardgrass (Echinochloa crus-galli (L.) P. Beauv. var. crus-galli); experiment: as above; conditions: foliage treatment, plants grown two weeks, 1,000 g active ingredient per hectare, 14th day after application
In short: as §1

[4] = tested on: green foxtail (Setaria viridis (L.) P. Beauv.); experiment: as above; conditions: foliage treatment, plants grown two weeks, 1,000 g active ingredient per hectare, 14th day after application
In short: as §1

[5] = tested on: slender amaranth (Amaranthus viridis L.); experiment: Test Example 2: herbicidal effect by soil application to upland field; conditions: soil surface spray, upland field soil, 1,000 g active ingredient per hectare, 21st day after application
In short: (§2)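 Using a small sprayer, we treat the soil surface of pots just after sowing and covering seeds. The aqueous wettable powder supplies 1,000 g a.i./ha in 1,000 L water/ha; after greenhouse growth, injury is scored on day 21 using a standard rating.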

[6] = tested on: velvetleaf (Abutilon theophrasti medicus); experiment: as above; conditions: soil surface spray, upland field soil, 1,000 g active ingredient per hectare, 21st day after application
In short: as §2

[7] = tested on: barnyardgrass (Echinochloa crus-galli (L.) P. Beauv. var. crus-galli); experiment: as above; conditions: soil surface spray, upland field soil, 1,000 g active ingredient per hectare, 21st day after application
In short: as §2

[8] = tested on: green foxtail (Setaria viridis (L.) P. Beauv.); experiment: as above; conditions: soil surface spray, upland field soil, 1,000 g active ingredient per hectare, 21st day after application
In short: as §2

[9] = tested on: early watergrass (Echinochloa oryzicola Vasing); experiment: Test Example 1: herbicidal effect by soil application to paddy field; conditions: paddy field soil application; active ingredient 1,000 g per 1 hectare; wettable powder added dropwise to water surface the day after sowing; examined on the 21st day after application
In short: (§3)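 Plants were sown in flooded (3 cm) paddy soil and evaluated for herbicidal effect 21 days after soil application in a greenhouse.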

[10] = tested on: Japanese bulrush (Scirpus juncoides Roxb.); experiment: as above; conditions: paddy field soil application; active ingredient 1,000 g per 1 hectare; wettable powder added dropwise to water surface the day after sowing; examined on the 21st day after application
In short: as §3

[11] = tested on: heartshape false pickerelweed (Monochoria vaginalis (Burm.f.) C.Presl); experiment: as above; conditions: paddy field soil application; active ingredient 1,000 g per 1 hectare; wettable powder added dropwise to water surface the day after sowing; examined on the 21st day after application
In short: as §3

SMILES	herbicidal effect (index), Slender Amaranth [1]	herbicidal effect (index), Velvetleaf [2]	herbicidal effect (index), Barnyardgrass [3]	herbicidal effect (index), Green Foxtail [4]	herbicidal effect (index), Slender Amaranth [5]	herbicidal effect (index), Velvetleaf [6]	herbicidal effect (index), Barnyardgrass [7]	herbicidal effect (index), Green Foxtail [8]	herbicidal effect, Echinochloa oryzicola Vasing [9]	herbicidal effect, Scirpus juncoides Roxb. [10]	herbicidal effect, Monochoria vaginalis (Burm. f.) C. Presl [11]
CS(=O)(=O)c1ccc(-n2c(C(F)(F)F)ccc(C(=O)C3=C(O)CCCC3=O)c2=O)cc1 [I-83]	5 (90% or more of herbicidal effect and crop phytotoxicity)	5 (90% or more of herbicidal effect and crop phytotoxicity)	5 (90% or more of herbicidal effect and crop phytotoxicity)	5 (90% or more of herbicidal effect and crop phytotoxicity)	5 (90% or more of herbicidal effect and crop phytotoxicity)	5 (90% or more of herbicidal effect and crop phytotoxicity)	5 (90% or more of herbicidal effect and crop phytotoxicity)	5 (90% or more of herbicidal effect and crop phytotoxicity)	5 (90% or more of herbicidal effect and crop phytotoxicity)	5 (90% or more of herbicidal effect and crop phytotoxicity)	5 (90% or more of herbicidal effect and crop phytotoxicity)
O=C1CCCC(O)=C1C(=O)c1ccc(C(F)(F)F)n(-c2cccc(C(F)(F)F)c2)c1=O [I-85]	5 (90% or more of herbicidal effect and crop phytotoxicity)	5 (90% or more of herbicidal effect and crop phytotoxicity)	5 (90% or more of herbicidal effect and crop phytotoxicity)	5 (90% or more of herbicidal effect and crop phytotoxicity)	5 (90% or more of herbicidal effect and crop phytotoxicity)	5 (90% or more of herbicidal effect and crop phytotoxicity)	5 (90% or more of herbicidal effect and crop phytotoxicity)	5 (90% or more of herbicidal effect and crop phytotoxicity)	5 (90% or more of herbicidal effect and crop phytotoxicity)	5 (90% or more of herbicidal effect and crop phytotoxicity)	5 (90% or more of herbicidal effect and crop phytotoxicity)
O=C1CCCC(O)=C1C(=O)c1ccc(C(F)(F)F)n(-c2ccc(C(F)(F)F)cc2)c1=O [I-86]	5 (90% or more of herbicidal effect and crop phytotoxicity)	5 (90% or more of herbicidal effect and crop phytotoxicity)	5 (90% or more of herbicidal effect and crop phytotoxicity)	5 (90% or more of herbicidal effect and crop phytotoxicity)	5 (90% or more of herbicidal effect and crop phytotoxicity)	5 (90% or more of herbicidal effect and crop phytotoxicity)	5 (90% or more of herbicidal effect and crop phytotoxicity)	5 (90% or more of herbicidal effect and crop phytotoxicity)	5 (90% or more of herbicidal effect and crop phytotoxicity)	5 (90% or more of herbicidal effect and crop phytotoxicity)	5 (90% or more of herbicidal effect and crop phytotoxicity)
O=C1CCCC(O)=C1C(=O)c1ccc(C(F)(F)F)n(-c2cccc([N+](=O)[O-])c2)c1=O [I-87]	5 (90% or more of herbicidal effect and crop phytotoxicity)	5 (90% or more of herbicidal effect and crop phytotoxicity)	5 (90% or more of herbicidal effect and crop phytotoxicity)	5 (90% or more of herbicidal effect and crop phytotoxicity)	5 (90% or more of herbicidal effect and crop phytotoxicity)	5 (90% or more of herbicidal effect and crop phytotoxicity)	5 (90% or more of herbicidal effect and crop phytotoxicity)	5 (90% or more of herbicidal effect and crop phytotoxicity)	5 (90% or more of herbicidal effect and crop phytotoxicity)	5 (90% or more of herbicidal effect and crop phytotoxicity)	5 (90% or more of herbicidal effect and crop phytotoxicity)
O=C1CCCC(O)=C1C(=O)c1ccc(C(F)(F)F)n(-c2ccc([N+](=O)[O-])cc2)c1=O [I-88]	5 (90% or more of herbicidal effect and crop phytotoxicity)	5 (90% or more of herbicidal effect and crop phytotoxicity)	5 (90% or more of herbicidal effect and crop phytotoxicity)	5 (90% or more of herbicidal effect and crop phytotoxicity)	5 (90% or more of herbicidal effect and crop phytotoxicity)	5 (90% or more of herbicidal effect and crop phytotoxicity)	5 (90% or more of herbicidal effect and crop phytotoxicity)	5 (90% or more of herbicidal effect and crop phytotoxicity)	5 (90% or more of herbicidal effect and crop phytotoxicity)	5 (90% or more of herbicidal effect and crop phytotoxicity)	5 (90% or more of herbicidal effect and crop phytotoxicity)
Cc1ccc(-n2c(C(F)(F)F)ccc(C(=O)C3=C(O)CCCC3=O)c2=O)cc1 [I-89]	5 (90% or more of herbicidal effect and crop phytotoxicity)	5 (90% or more of herbicidal effect and crop phytotoxicity)	5 (90% or more of herbicidal effect and crop phytotoxicity)	5 (90% or more of herbicidal effect and crop phytotoxicity)	5 (90% or more of herbicidal effect and crop phytotoxicity)	5 (90% or more of herbicidal effect and crop phytotoxicity)	5 (90% or more of herbicidal effect and crop phytotoxicity)	5 (90% or more of herbicidal effect and crop phytotoxicity)	5 (90% or more of herbicidal effect and crop phytotoxicity)	5 (90% or more of herbicidal effect and crop phytotoxicity)	5 (90% or more of herbicidal effect and crop phytotoxicity)
O=C1CCCC(O)=C1C(=O)c1ccc(C(F)(F)F)n(-c2ccc(Br)cc2)c1=O [I-90]	5 (90% or more of herbicidal effect and crop phytotoxicity)	5 (90% or more of herbicidal effect and crop phytotoxicity)	5 (90% or more of herbicidal effect and crop phytotoxicity)	5 (90% or more of herbicidal effect and crop phytotoxicity)	5 (90% or more of herbicidal effect and crop phytotoxicity)	5 (90% or more of herbicidal effect and crop phytotoxicity)	5 (90% or more of herbicidal effect and crop phytotoxicity)	5 (90% or more of herbicidal effect and crop phytotoxicity)	5 (90% or more of herbicidal effect and crop phytotoxicity)	5 (90% or more of herbicidal effect and crop phytotoxicity)	5 (90% or more of herbicidal effect and crop phytotoxicity)
O=C1CCCC(O)=C1C(=O)c1ccc(C(F)(F)F)n(-c2ccccc2F)c1=O [I-91]	5 (90% or more of herbicidal effect and crop phytotoxicity)	5 (90% or more of herbicidal effect and crop phytotoxicity)	5 (90% or more of herbicidal effect and crop phytotoxicity)	4 (70 to less than 90% of herbicidal effect and crop phytotoxicity)	5 (90% or more of herbicidal effect and crop phytotoxicity)	5 (90% or more of herbicidal effect and crop phytotoxicity)	5 (90% or more of herbicidal effect and crop phytotoxicity)	5 (90% or more of herbicidal effect and crop phytotoxicity)	5 (90% or more of herbicidal effect and crop phytotoxicity)	5 (90% or more of herbicidal effect and crop phytotoxicity)	5 (90% or more of herbicidal effect and crop phytotoxicity)
